In patent publication US20230000808A1, “COMPOSITIONS AND METHODS EXCLUDING OR WITH REDUCED GLUTAMINE FOR THE TREATMENT OF HEMOGLOBINOPATHIES AND THALASSEMIAS” (AXCELLA HEALTH INC., priority 2019, published 2023):

How the values were obtained:
TNFα = assay: LPS-induced TNF-α secretion in primary human monocyte-derived macrophages (ELISA); assay type: cell-based; conditions: for TNF-α Measurements Mean: baseline subtracted; for effect on LPS-induced TNF-α secretion: Two Way ANOVA Dunnett
Method: (§1) Primary human PMBC derived macrophages were seeded on day 0 at 3.0×10^4 cells per well in 96-well microplates (ThermoFisher) in Dulbecco's Modified Eagle Medium (DMEM) (Gibco) supplemented with penicillin-streptomycin (Hyclone) and 10% heat inactivated fetal bovine serum (HI-FBS) (Atlanta Bio) and incubated overnight at 37° C., 5% CO2. On day 1, cells were washed once with 150 μl per well DPBS (Gibco) and treated with 75 μl of: • a. […] The same medium described above with one amino acid at various concentrations including complete dropout. […] On day 3, the supernatant was collected and immediately frozen in −80° C. freezer. Cells were washed once with 150 μl DPBS and viability was assessed using the WST-8 Cell Proliferation Cytotoxicity Assay (Dojindo). […] Protein levels in supernatant samples were analyzed by ELISA for IL-6 and TNFα using commercially available kits (R&D Systems) according to manufacturer-supplied protocols.

ICAM-1 = ICAM-1 cell integrated intensity in HLMVEC treated with TNF-α (immunofluorescence); assay type: cell-based, human; conditions: for TNFα induced ICAM-1 expression levels in HLMVEC: 0.5 ng/mL TNF-α, amino acids at 20× HMDB, 24 hours
How it was run: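 Primary human lung microvascular endothelial cells, 24 h in medium with SCD-like amino acid profile plus 0.5 ng/mL TNF-α, with or without amino acids at 20× mean plasma level. Fixed, immunostained for ICAM-1 and VCAM-1; integrated intensity per cell by high-content imaging.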

IL-6 [1] = assay: Secreted IL-6 in HLMVEC treated with TNF-α (FirePlex); assay type: cell-based, human
How it was run: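 Primary human lung microvascular endothelial cells, after overnight attachment, were switched to medium with amino acid levels mimicking SCD patient blood, plus 0.5 ng/mL TNF-α with or without amino acid treatments at 20× mean physiological plasma concentrations. Supernatant IL-6 measured by FirePlex immunoassay, interpolated from a standard curve.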

IL-6 [2] = assay: LPS-induced IL-6 secretion in primary human monocyte-derived macrophages (ELISA); assay type: cell-based; set-up: Donor 1 IL-6 Measurements Mean: unit not given here; conditions: for Donor 1 IL-6 Measurements Mean / Donor 2 IL-6 Measurements Mean / Donor 3 IL-6 Measurements Mean: LPS, baseline subtracted; for effect on LPS-induced IL-6 secretion: Two Way ANOVA Dunnett
Method: as §1

[3] = HLMVEC + 0.5 ng/mL TNF-α, 24 h, amino acids 20x HMDB, Nac/Cit/Car 5 mM as bracketed

NC(=O)CC[C@H](N)C(=O)O [Glutamine, L-glutamine]
TNF-α Measurements Mean (TNFα; Donor 1, Conc. 749 μM (baseline), LPS): 0
TNF-α Measurements Mean (TNFα; Donor 1, Conc. 3747 μM, LPS): −45.7
TNF-α Measurements Mean (TNFα; Donor 1, Conc. 11242 μM, LPS): −65.24
TNF-α Measurements Mean (TNFα; Donor 1, Conc. 22484 μM, LPS): −103.07
TNF-α Measurements Mean (TNFα; Donor 2, Conc. 749 μM (baseline), LPS): −9.5E−15
TNF-α Measurements Mean (TNFα; Donor 2, Conc. 3747 μM, LPS): 9.338
TNF-α Measurements Mean (TNFα; Donor 2, Conc. 11242 μM, LPS): 20.04
TNF-α Measurements Mean (TNFα; Donor 2, Conc. 22484 μM, LPS): 11.5
effect on LPS-induced TNF-α secretion (TNFα; Donor 2): increased
TNF-α Measurements Mean (TNFα; Donor 3, Conc. 749 μM (baseline), LPS): 0
TNF-α Measurements Mean (TNFα; Donor 3, Conc. 3747 μM, LPS): 1.936
TNF-α Measurements Mean (TNFα; Donor 3, Conc. 11242 μM, LPS): 18
TNF-α Measurements Mean (TNFα; Donor 3, Conc. 22484 μM, LPS): 29.14
effect on LPS-induced TNF-α secretion (TNFα; Donor 3): increased
TNFα induced ICAM-1 expression levels in HLMVEC (ICAM-1): increased
IL-6 secretion from TNFα treated HLMVEC (IL-6 [1]; 0.5 ng/mL TNF-α, amino acids at 20× HMDB, 24 hours): increased
Donor 1 IL-6 Measurements Mean (IL-6 [2]; Donor 1, Conc. 749 μM (baseline)): 0
Donor 1 IL-6 Measurements Mean (IL-6 [2]; Donor 1, Conc. 3747 μM): 291.5443
Donor 1 IL-6 Measurements Mean (IL-6 [2]; Donor 1, Conc. 11242 μM): 397.1745
Donor 1 IL-6 Measurements Mean (IL-6 [2]; Donor 1, Conc. 22484 μM): 440.1437
effect on LPS-induced IL-6 secretion (IL-6 [2]; Donor 1): increased
Donor 2 IL-6 Measurements Mean (IL-6 [2]; Donor 2, Conc. 749 μM (baseline)): 2.37E−15
Donor 2 IL-6 Measurements Mean (IL-6 [2]; Donor 2, Conc. 3747 μM): 22.52
Donor 2 IL-6 Measurements Mean (IL-6 [2]; Donor 2, Conc. 11242 μM): 63.31
Donor 2 IL-6 Measurements Mean (IL-6 [2]; Donor 2, Conc. 22484 μM): 34.39
effect on LPS-induced IL-6 secretion (IL-6 [2]; Donor 2): increased
Donor 3 IL-6 Measurements Mean (IL-6 [2]; Donor 3, Conc. 749 μM (baseline)): 3.79E−14
Donor 3 IL-6 Measurements Mean (IL-6 [2]; Donor 3, Conc. 3747 μM): 25.35
Donor 3 IL-6 Measurements Mean (IL-6 [2]; Donor 3, Conc. 11242 μM): 98.4903
Donor 3 IL-6 Measurements Mean (IL-6 [2]; Donor 3, Conc. 22484 μM): 108.5158
effect on LPS-induced IL-6 secretion (IL-6 [2]; Donor 3): significantly increased

CC(=O)N[C@@H](CS)C(=O)O [N-Acetyl Cysteine, N-acetylcysteine]
TNF-α Measurements Mean (TNFα; Donor 1, Conc. 5 X, LPS 0.15 ng/mL): −326.24
TNF-α Measurements Mean (TNFα; Donor 1, Conc. 10 X, LPS 0.15 ng/mL): −446.88
TNF-α Measurements Mean (TNFα; Donor 1, Conc. 20 X, LPS 0.15 ng/mL): −561.33
TNF-α Measurements Mean (TNFα; Donor 1, Conc. 40 X, LPS 0.15 ng/mL): −644.49
effect on LPS-induced TNF-α secretion (TNFα; Donor 1): significantly reduced
TNF-α Measurements Mean (TNFα; Donor 2, Conc. 5 X, LPS 0.15 ng/mL): −54.1596
TNF-α Measurements Mean (TNFα; Donor 2, Conc. 10 X, LPS 0.15 ng/mL): −70.8382
TNF-α Measurements Mean (TNFα; Donor 2, Conc. 20 X, LPS 0.15 ng/mL): −88.6528
TNF-α Measurements Mean (TNFα; Donor 2, Conc. 40 X, LPS 0.15 ng/mL): −103.984
effect on LPS-induced TNF-α secretion (TNFα; Donor 2): significantly reduced
TNF-α Measurements Mean (TNFα; Donor 3, Conc. 5 X, LPS 0.15 ng/mL): −33.6246
TNF-α Measurements Mean (TNFα; Donor 3, Conc. 10 X, LPS 0.15 ng/mL): −41.7266
TNF-α Measurements Mean (TNFα; Donor 3, Conc. 20 X, LPS 0.15 ng/mL): −48.4373
TNF-α Measurements Mean (TNFα; Donor 3, Conc. 40 X, LPS 0.15 ng/mL): −55.3093
effect on LPS-induced TNF-α secretion (TNFα; Donor 3): significantly reduced
TNFα induced ICAM-1 expression levels in HLMVEC (ICAM-1): reduced levels of ICAM-1 expression to a lesser extent
ICAM-1 Cell Integrated Intensity Median (ICAM-1; [3]): −0.222
Secreted IL6 Median (IL-6 [1]; [3]): −0.497
Donor 1 IL-6 Measurements Mean (IL-6 [2]; Donor 1, Conc. 0 X (baseline)): 0
Donor 1 IL-6 Measurements Mean (IL-6 [2]; Donor 1, Conc. 5 X): 308.1772
Donor 1 IL-6 Measurements Mean (IL-6 [2]; Donor 1, Conc. 10 X): −121.142
Donor 1 IL-6 Measurements Mean (IL-6 [2]; Donor 1, Conc. 20 X): −553.802
Donor 1 IL-6 Measurements Mean (IL-6 [2]; Donor 1, Conc. 40 X): −914.194
effect on LPS-induced IL-6 secretion (IL-6 [2]; Donor 1): significantly reduced
Donor 2 IL-6 Measurements Mean (IL-6 [2]; Donor 2, Conc. 0 X (baseline)): −2.4E−15
Donor 2 IL-6 Measurements Mean (IL-6 [2]; Donor 2, Conc. 5 X): −0.7946
Donor 2 IL-6 Measurements Mean (IL-6 [2]; Donor 2, Conc. 10 X): −9.751
Donor 2 IL-6 Measurements Mean (IL-6 [2]; Donor 2, Conc. 20 X): −24.9999
Donor 2 IL-6 Measurements Mean (IL-6 [2]; Donor 2, Conc. 40 X): −33.7585
effect on LPS-induced IL-6 secretion (IL-6 [2]; Donor 2): significantly reduced
Donor 3 IL-6 Measurements Mean (IL-6 [2]; Donor 3, Conc. 0 X (baseline)): −9.5E−15
Donor 3 IL-6 Measurements Mean (IL-6 [2]; Donor 3, Conc. 5 X): −70.3269
Donor 3 IL-6 Measurements Mean (IL-6 [2]; Donor 3, Conc. 10 X): −103.586
Donor 3 IL-6 Measurements Mean (IL-6 [2]; Donor 3, Conc. 20 X): −122.656
Donor 3 IL-6 Measurements Mean (IL-6 [2]; Donor 3, Conc. 40 X): −140.851
effect on LPS-induced IL-6 secretion (IL-6 [2]; Donor 3): significantly reduced
